This note sets out measurements from PubChem BioAssay (NCI).

Where “and” joins values, the source holds several entries; their conditions need not be identical. Equal values may be shown once.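 Protocol summary: plate cells (96-well), add compound at 5 concentrations, incubate 48 h, interpolate endpoints linearly. Abbreviation: GI50, concentration required for 50% inhibition of growth. Definition used: TGI = concentration required for complete inhibition of growth.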

Among the test systems are SK-MEL-28 melanoma; OVCAR-8 ovarian; K-562 leukemia; LOX IMVI melanoma; COLO 205 colon; NCI-H460 lung; HOP-62 NSCLC; HL-60(TB) leukemia; SF-268 CNS; IGROV1 ovarian.
Test in all cases: NCI-60 cell line screen, 48 h

As for `CCn1cc(-c2ccnc3[nH]c(-c4cccc(CN(C)C)c4)cc23)c(-c2ccc(NC(=O)N(C)C)cc2)n1`, the GI50 in the test on SK-MEL-28 melanoma is 3.45 µM and > 10 µM; in the test with OVCAR-8 ovarian it was 3.33 µM and 3.61 µM; in the test on LOX IMVI melanoma, 297 nM and 239 nM; in the test on COLO 205 colon, < 10 nM and 27.2 nM; with NCI-H460 lung, 209 nM and 109 nM; in the test on HOP-62 NSCLC, 385 nM and 1280 nM. Moreover, the GI50 in the test on HL-60(TB) leukemia is 1460 nM and 863 nM; with SF-268 CNS it was 3030 nM and 2070 nM; with IGROV1 ovarian it was 3470 nM and 1900 nM. Also, the TGI with SK-MEL-28 melanoma is 17.1 µM and > 10 µM; in the test on OVCAR-8 ovarian it was 23 µM and > 10 µM; with K-562 leukemia it was 17.2 µM and 2.96 µM; in the test on LOX IMVI melanoma it was 1.88 µM and 5.2 µM; with COLO 205 colon, 3.81 µM and 2.99 µM; in the test with NCI-H460 lung it was 13.7 µM and > 10 µM. For the same compound, the TGI is 14.4 µM and > 10 µM with HOP-62 NSCLC; 8.3 µM and > 10 µM in the test on HL-60(TB) leukemia; 20.9 µM and > 10 µM in the test with SF-268 CNS; 33.2 µM and > 10 µM in the test with IGROV1 ovarian.

Regarding `COc1ccc(CNc2c3ccccc3nc3ccccc23)cc1F`, the GI50 is 3.84 µM in the test on SK-MEL-28 melanoma; 3.52 µM in the test on OVCAR-8 ovarian; 2940 nM in the test with K-562 leukemia; 1760 nM with LOX IMVI melanoma; 2010 nM in the test with COLO 205 colon; 3150 nM in the test on NCI-H460 lung. For the same compound, the GI50 in the test on HOP-62 NSCLC is 4200 nM; in the test on HL-60(TB) leukemia it was 3370 nM; in the test with SF-268 CNS, 3760 nM; in the test with IGROV1 ovarian it was 2820 nM. In addition, the TGI in the test with SK-MEL-28 melanoma stood at 13.9 µM; in the test with OVCAR-8 ovarian, 19.4 µM; with K-562 leukemia it was 12.3 µM; in the test on LOX IMVI melanoma it was 3.63 µM; with COLO 205 colon it was 5.64 µM; with NCI-H460 lung, 10.4 µM. Further, the TGI in the test on HOP-62 NSCLC stood at 20.5 µM; with HL-60(TB) leukemia it was 10.4 µM; in the test with SF-268 CNS it was 15.1 µM; in the test with IGROV1 ovarian it was 10.4 µM.

Regarding `CCCCCCn1c(-c2ccc(C(=O)O/N=C(\N)c3ccc4c(c3)OCO4)cc2)nc(-c2ccccc2)c1-c1ccccc1`, the GI50 in the test on SK-MEL-28 melanoma was 4.47 µM; in the test on OVCAR-8 ovarian it was 2.46 µM; in the test with K-562 leukemia, 1920 nM; in the test with LOX IMVI melanoma, 173 nM; with COLO 205 colon, 2150 nM; in the test with NCI-H460 lung, 2080 nM. The GI50 was 2110 nM with HOP-62 NSCLC, 1420 nM with HL-60(TB) leukemia, 2110 nM in the test on SF-268 CNS and 463 nM with IGROV1 ovarian. Moreover, the TGI with SK-MEL-28 melanoma came to 22.7 µM; in the test on OVCAR-8 ovarian it was 7.09 µM; with K-562 leukemia, 5.06 µM; in the test with LOX IMVI melanoma it was 0.329 µM; in the test with COLO 205 colon, 5.37 µM; with NCI-H460 lung, 4.57 µM. In addition, the TGI turned out to be 4.71 µM in the test with HOP-62 NSCLC, 3.49 µM with HL-60(TB) leukemia, 4.64 µM in the test with SF-268 CNS and 1.93 µM in the test with IGROV1 ovarian.

Consider `COC(=N)c1csc(C2OC(CO)C(O)C2O)n1` (centres undefined), for which the TGI with SK-MEL-28 melanoma, with OVCAR-8 ovarian, in the test with K-562 leukemia, in the test with LOX IMVI melanoma, with COLO 205 colon and with NCI-H460 lung was over 100 µM each time. For the same compound, the TGI in the test on HOP-62 NSCLC, with HL-60(TB) leukemia, in the test with SF-268 CNS and with IGROV1 ovarian was over 100 µM throughout.

With `Nc1nc(Cl)nc2c1ncn2C1CC(O)C(CO)O1` (centres undefined), the TGI with SK-MEL-28 melanoma is over 100 µM; in the test on OVCAR-8 ovarian, over 100 µM; in the test with K-562 leukemia, over 100 µM; with LOX IMVI melanoma, 30.6 µM; in the test with COLO 205 colon, over 100 µM; in the test on NCI-H460 lung, over 100 µM. Moreover, the TGI is 6.8 µM with HOP-62 NSCLC, 1.02 µM in the test on HL-60(TB) leukemia, over 95.7 µM with SF-268 CNS and over 100 µM in the test with IGROV1 ovarian.

With `O=c1cccc(C#CC#C[C@@H]2O[C@H]2CO)o1`, the GI50 with SK-MEL-28 melanoma is 0.27 µM; in the test with OVCAR-8 ovarian, 1.03 µM; in the test with K-562 leukemia, 1490 nM; in the test on LOX IMVI melanoma, 797 nM; with COLO 205 colon it was 201 nM; in the test with NCI-H460 lung it was 2030 nM. For the same compound, the GI50 in the test with HOP-62 NSCLC was 1550 nM; in the test on HL-60(TB) leukemia, 3120 nM; with SF-268 CNS, 1780 nM; with IGROV1 ovarian, 183 nM. In addition, the TGI with SK-MEL-28 melanoma is 1.36 µM; in the test with OVCAR-8 ovarian, 3.12 µM; in the test with K-562 leukemia, over 100 µM; in the test with LOX IMVI melanoma, 1.73 µM; in the test on COLO 205 colon, 0.388 µM; with NCI-H460 lung it was 4.63 µM. In addition, the TGI in the test on HOP-62 NSCLC is 3.03 µM; with HL-60(TB) leukemia, over 100 µM; in the test with SF-268 CNS, 3.91 µM; with IGROV1 ovarian it was 0.339 µM.

Regarding `CCOC(=O)c1c(C)c2c(n1Cc1ccccc1)CSCC2=O`, the GI50 with SK-MEL-28 melanoma is 22.2 µM; with OVCAR-8 ovarian it was 27.6 µM; in the test on K-562 leukemia it was 21700 nM; with LOX IMVI melanoma, 14800 nM; in the test on COLO 205 colon, 20300 nM; with NCI-H460 lung it was 20400 nM. The GI50 is 22900 nM in the test with HOP-62 NSCLC, 18800 nM in the test with HL-60(TB) leukemia, 19300 nM with SF-268 CNS and 16900 nM in the test with IGROV1 ovarian. Further, the TGI in the test on SK-MEL-28 melanoma is 55.7 µM; with OVCAR-8 ovarian, over 100 µM; with K-562 leukemia it was over 100 µM; with LOX IMVI melanoma, 50.9 µM; in the test with COLO 205 colon, 48.8 µM; in the test with NCI-H460 lung, 55.1 µM. The TGI with HOP-62 NSCLC was 63.5 µM; with HL-60(TB) leukemia, 54.1 µM; with SF-268 CNS it was over 100 µM; in the test on IGROV1 ovarian it was over 100 µM.
